Experimental data taken from the supplement of paper PMC10307832.

These cell lines were tested with CC1=NN=C(O1)C2=NN=C(C=C2)N3CCC(CC3)OC4=C(C=CC(=C4)F)Cl + N=C(N)NC(=N)NCCc1ccccc1 [Phenformin] (partner 250 µM) (assay: relative viability (nuclei count vs DMSO), 5 days (fraction); higher = more cells survive). Conditions: first compound 0.253 µM.
How it was run: (§1)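 After 5 days of treatment, lung cancer cells in 1536-well plates were fixed and stained in a single step (final 0.05% Triton X-100, 1% formaldehyde, 1 ug/ml Hoechst) and their nuclei counted on 4× images. Treatment had been applied by pin tool the day after seeding as one drug alone or as a fixed anchor-drug dose with five library-drug doses (not always all listed) in √10 steps. Relative viability is the nuclei count of treated wells divided by that of vehicle wells, and values are medians of duplicate plates.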

Cell Line	relative viability
NCI-H322M	0.759
NCI-H1437	0.209
PC-14	0.656
CAL-12T	0.585
NCI-H1734	0.429
EPLC-272H	0.315
NCI-H3122	0.324
NCI-H2009	0.456
NCI-H520	0.509
NCI-H1651	0.367
NCI-H1993	0.553
NCI-H2228	0.313
HCC-15	0.441
NCI-H1793	0.402
EKVX	0.211
LC-2-ad	0.496
NCI-H1666	0.509
NCI-H1944	0.183
NCI-H2085	0.676
ABC-1	0.197
NCI-H358	0.369
PC-3 [JPC-3]	0.433
LOU-NH91	0.64

Same assay, conditions: first compound 0.8 µM

Cell Line	relative viability
NCI-H322M	0.742
NCI-H1437	0.236
CAL-12T	0.519
NCI-H1734	0.32
EPLC-272H	0.279
NCI-H3122	0.282
NCI-H2009	0.418
NCI-H520	0.414
NCI-H1651	0.487
NCI-H1993	0.481
NCI-H2228	0.257
HCC-15	0.396
NCI-H1793	0.385
EKVX	0.223
LC-2-ad	0.489
NCI-H1666	0.57
NCI-H1944	0.187
NCI-H1650	0.403
ABC-1	0.224
NCI-H358	0.304
PC-3 [JPC-3]	0.406
LOU-NH91	0.598

Same assay, conditions: first compound 2.53 µM

Cell Line	relative viability
NCI-H322M	0.846
NCI-H1437	0.288
PC-14	0.463
CAL-12T	0.488
NCI-H1734	0.405
EPLC-272H	0.309
NCI-H3122	0.253
NCI-H2009	0.424
NCI-H520	0.741
NCI-H1651	0.368
NCI-H1993	0.651
NCI-H2228	0.294
HCC-15	0.427
NCI-H1793	0.37
EKVX	0.236
LC-2-ad	0.51
NCI-H1666	0.555
NCI-H1944	0.196
NCI-H2085	0.629
NCI-H1650	0.445
ABC-1	0.291
NCI-H358	0.359
PC-3 [JPC-3]	0.426
LOU-NH91	0.69

Same assay, conditions: first compound 8 µM

Cell Line	relative viability
NCI-H322M	0.731
NCI-H1437	0.252
PC-14	0.567
CAL-12T	0.416
NCI-H1734	0.395
EPLC-272H	0.294
NCI-H3122	0.275
NCI-H2009	0.378
NCI-H520	0.578
NCI-H1651	0.325
NCI-H1993	0.509
NCI-H2228	0.401
HCC-15	0.428
NCI-H1793	0.315
EKVX	0.227
LC-2-ad	0.472
NCI-H1666	0.584
NCI-H1944	0.183
NCI-H2085	0.565
NCI-H1650	0.453
ABC-1	0.276
NCI-H358	0.305
PC-3 [JPC-3]	0.412
LOU-NH91	0.679

The cell lines below were run with CC(C)C[C@@H](C(=O)N[C@H](C(=O)OC1CCCC1)c1ccccc1)[C@H](O)C(=O)NO [Tosedostat] + CC(=O)c1c(C)c2cnc(Nc3ccc(N4CCNCC4)cn3)nc2n(C2CCCC2)c1=O [Palbociclib] (partner 0.5 µM) in the same assay as above. Conditions: first compound 0.02 µM.
How it was run: as §1

Cell Line	relative viability
NCI-H322M	0.466
NCI-H1437	0.355
PC-14	0.583
CAL-12T	0.468
NCI-H1734	0.367
EPLC-272H	0.337
NCI-H3122	0.195
NCI-H2009	0.252
NCI-H520	0.245
NCI-H1651	0.528
NCI-H1993	0.72
NCI-H2228	1
HCC-15	0.759
NCI-H1793	0.302
EKVX	0.368
LC-2-ad	0.49
NCI-H1666	0.589
NCI-H1944	0.315
NCI-H1650	0.352
